According to patent publication US20240059729A1, “MULTIFUNCTIONAL CYCLIC DINUCLEOTIDE AND USE THEREOF” (TYLIGAND BIOSCIENCE (SHANGHAI) LIMITED, priority 2020, published 2024):
Where a name gives a salt, the structure may show the parent alone.

How the values were obtained:
[1] = system: CT26 cells; test: Immunological memory function in CT26 transplantation tumor model, syngeneic or nude mouse (re-inoculation); assay type: in vivo, BALB/c immune-competent or nude mice; conditions: for Average tumor volume after re-inoculation of CT26 cells: immunocompetent BALB/c mice
Experimental: BALB/c immune-competent or nude mice of 6-8 weeks (purchased from Shanghai Ling Chang Biotech Co., Ltd.) were inoculated with 5×10^5 CT26 cells (supplied by Taicang Zexin Biotechnology Co., Ltd., ATCC #CRL-2638) subcutaneously on the right back dorsal, respectively, and the inoculation volume was 0.1 mL. When tumors grew to an average volume of 100 mm^3, they were randomized according to tumor size and mouse body weight and dosed. The day of the first dose was Day 0. Two doses were administered on Day 0 and Day 4, with 50 μg of compound/mouse (i.e., 2.5 mg/kg) injected intratumorally, with the same volume of PBS (Hyclone, Cat #SH30258.01) as a control. Mice in the nude or BALB/c mice groups were sacrificed on Day 9 or Day 13 post-dosing, respectively. On Day 21 post-dosing, mice were inoculated again subcutaneously on the left back dorsal with 5×10^5 CT26 cells in a volume of 0.1 mL. Blank BALB/c or nude mice without any treatment were also inoculated as controls. During the experiment, tumor volumes and the body weights were measured 3 times per week, and the tumor volume was calculated as V=D×d×d/2 (Ibid).

[2] = Discovery and identification of metabolites in hepatocytes; assay type: in vitro ADME, mouse, rat, dog, monkey, human; conditions: 5 species of hepatocytes, 240 min; FIG. 4-B
From the text: The main metabolites of the compounds of the invention in 5 species (mouse, rat, dog, monkey, human) of hepatocytes were similarly identified according to standard methods of in vitro metabolic stability studies conventional in the art, for example (Kems, Edward H. and Di Li (2008). Drug-like Properties: Concepts, Structure Design and Methods: From ADME to Toxicity Optimization, San Diego: Academic Press; Di, Li et al, Optimization of a High Throughput Microsomal Stability Screening Assay for Profiling Drug Discovery Candidates, J Biomol Screen. 2003, 8(4), 453).
The hepatocytes used in the experiment: human hepatocytes (SHQY, Cat. #BQHPCH10, Lot. #HEP190006-TA05), dog hepatocytes (BioIVT, Cat. #M00205, Lot. #ZMB); monkey hepatocytes (XENOTECH, Cat. #PPCH2000, Lot. #2010022), rat hepatocytes (SHQY, Cat. #BQR1000⋅H15, Lot. #HEP134049), and mouse hepatocytes (BioIVT, Cat. #M005052, Lot. #MEO).
A HI hepatocyte maintenance medium (BIOIVT, Cat. #Z99009; Lot. #C02060C) was pre-warmed to 37° C. Cryopreserved hepatocyte tubes were removed from a liquid nitrogen tank and immediately placed in a shaking water bath at 37±1° C. for 2 minutes±15 seconds. […] The hepatocytes were counted and then the cell suspension was diluted in HI medium to the appropriate density (viable cell density=2×10^6 cells/mL). […]

Compound: Nc1nc2c(ncn2[C@@H]2O[C@@H]3CO[P@@](=O)(S)OC4C(F)[C@H](n5cnc6c(N)nc(Cl)nc65)O[C@@H]4CO[P@@](=O)(S)OC2C3O)c(=O)[nH]1 (stereo partly drawn) [Example 10, (2′,3′)-cyclo-(Rp,Rp)-[2′-O-phosphorothioate-diester-guanosine]-[3′-O-phosphorothioate-diester-2-chloro-2′-deoxy-2′-fluoro-beta-adenosine] diammonium salt]
- CT26 tumor growth inhibition in immunocompetent and immunodeficient mice (in words) ([1]; 50 μg/mouse intratumorally, Day 0 and Day 4): significantly inhibited CT26 tumor growth in both immunocompetent and immunodeficient mice
- Tumor status in treated immunocompetent mice ([1]; Day 5 post-dosing): the tumors completely disappeared
- Average tumor volume after re-inoculation of CT26 cells ([1]; re-inoculated Day 21, end of experiment Day 33): 101 mm^3
- Average tumor volume after re-inoculation of CT26 cells ([1]; re-inoculated Day 21, measured Day 30): 29 mm^3
- Immunological memory in immunocompetent mice ([1]; re-inoculated CT26 cells): developed an immunological memory
- Immunological memory in immunodeficient nude mice ([1]; re-inoculated CT26 cells Day 21): no immunological memory has been generated
- Main metabolite in hepatocytes [2]: Clofarabine
